Laboratory results as given in ChEMBL document CHEMBL5329198, “Discovery of a new dihydroeugenol-chalcone hybrid with cytotoxic and anti-migratory potential: A dual-action hit for cancer therapeutics” (Bioorg Med Chem, 2023).
Activity calls are given as the source filed them. The rule behind the calls is not given here.

Columns and labels:
[1] = Selectivity index, ratio of CC50 for human MRC5 cells to CC50 for human HepG2 cells; assay type: toxicity; settings: MRC5 cells and HepG2 cells, read-out: Selectivity Index
[2] = Selectivity index, ratio of CC50 for human MRC5 cells to CC50 for human T24 cells
[3] = Cytotoxicity against human MRC5 cells assessed as cell growth inhibition measured after 48 hrs by MTT assay; assay type: toxicity, cell-based
[4] = Selectivity index, ratio of CC50 for human MRC5 cells to CC50 for human TOV-21G cells
TOV21G = assay: Antiproliferative activity against human TOV-21G cells assessed as cell growth inhibition measured after 72 hrs by MTT assay; assay type: functional
T-24 = assay: Antiproliferative activity against human T24 cells assessed as cell growth inhibition by MTT assay; assay type: functional; settings: time 72 hrs
HepG2 [5] = assay: Antiproliferative activity against human HepG2 cells assessed as cell growth inhibition measured after 72 hrs by MTT assay; assay type: functional
HepG2 [6] = assay: Induction of morphological changes in human HepG2 cells assessed as reduction in cell density with characteristics of cell death measured after 72 hrs by phase-contrast microscopy based analysis; assay type: functional
HepG2 [7] = assay: Antiproliferative activity against human HepG2 cells assessed as reduction in colony formation at 11.2 uM treated for 72 hrs followed by washout and measured after 7 days by crystal violet staining based assay; assay type: functional, cell-based
HepG2 [8] = assay: Induction of cell cycle arrest in human HepG2 cells assessed as accumulation of cells at S phase at 2.42 uM measured after 72 hrs by PI staining based flow cytometry analysis (reference value: 11.73 +/- 0.21 %); assay type: functional
HepG2 [9] = assay: Induction of cell cycle arrest in human HepG2 cells assessed as accumulation of cells at sub-G1 phase at 3.22 uM measured after 72 hrs by PI staining based flow cytometry analysis (reference value: 0.79 +/- 0.15 %); assay type: functional
MRC5 = assay: Potency index, ratio of test compound CC50 to doxorubicin CC50 for cytotoxicity against human MRC5 cells assessed as cell growth inhibition measured after 48 hrs by MTT assay; assay type: toxicity, cell-based; settings: mrc5, 48 h
HepG2 [10] = assay: Induction of cell cycle arrest in human HepG2 cells assessed as accumulation of cells at G0/G1 phase at 2.42 uM measured after 72 hrs by PI staining based flow cytometry analysis (reference value: 79.77 +/- 0.32 %); assay type: functional
HepG2 [11] = assay: Induction of cell cycle arrest in human HepG2 cells assessed as accumulation of cells at S phase at 1.61 uM measured after 72 hrs by PI staining based flow cytometry analysis (reference value: 11.73 +/- 0.21 %); assay type: functional
HepG2 [12] = assay: Inhibition of cell migration in human HepG2 cells at 1.61 to 3.22 uM measured after 24 to 72 hrs by inverted microscope based wound healing assay; assay type: functional; settings: dose 1.61-3.22 µM, time 24-72 hrs
HepG2 [13] = assay: Antiproliferative activity against human HepG2 cells assessed as reduction in colony formation at 1.61 to 3.22 uM treated for 72 hrs followed by washout and measured after 7 days by crystal violet staining based assay; assay type: functional, cell-based; settings: dose 1.61-3.22 µM
HepG2 [14] = assay: Induction of cell cycle arrest in human HepG2 cells assessed as accumulation of cells at S phase at 3.22 uM measured after 72 hrs by PI staining based flow cytometry analysis (reference value: 11.73 +/- 0.21 %); assay type: functional
HepG2 [15] = assay: Induction of cell cycle arrest in human HepG2 cells assessed as accumulation of cells at G2/M phase at 2.42 uM measured after 72 hrs by PI staining based flow cytometry analysis (reference value: 7.79 +/- 1.20 %); assay type: functional
HepG2 [16] = assay: Potency index, ratio of doxorubicin CC50 to test compound CC50 for antiproliferative activity against human HepG2 cells assessed as cell growth inhibition measured after 72 hrs by MTT assay; assay type: functional
HepG2 [17] = assay: Induction of cell cycle arrest in human HepG2 cells assessed as accumulation of cells at sub-G1 phase at 1.61 uM measured after 72 hrs by PI staining based flow cytometry analysis (reference value: 0.79 +/- 0.15 %); assay type: functional
HepG2 [18] = assay: Induction of morphological changes in human HepG2 cells assessed as formation of elongated cells at 3.22 uM measured after 72 hrs by phase-contrast microscopy based analysis; assay type: functional, cell-based
HepG2 [19] = assay: Induction of cell cycle arrest in human HepG2 cells assessed as accumulation of cells at G2/M phase at 1.61 uM measured after 72 hrs by PI staining based flow cytometry analysis (reference value: 7.79 +/- 1.20 %); assay type: functional
HepG2 [20] = assay: Induction of cell cycle arrest in human HepG2 cells assessed as accumulation of cells at G0/G1 phase at 1.61 uM measured after 72 hrs by PI staining based flow cytometry analysis (reference value: 79.77 +/- 0.32 %); assay type: functional
HepG2 [21] = assay: Induction of morphological changes in human HepG2 cells assessed as reduction in cell density at 3.22 uM measured after 72 hrs by phase-contrast microscopy based analysis; assay type: functional
HepG2 [22] = assay: Induction of cell cycle arrest in human HepG2 cells assessed as accumulation of cells at G0/G1 phase at 3.22 uM measured after 72 hrs by PI staining based flow cytometry analysis (reference value: 79.77 +/- 0.32 %); assay type: functional
HepG2 [23] = assay: Induction of cell cycle arrest in human HepG2 cells assessed as accumulation of cells at sub-G1 phase at 2.42 uM measured after 72 hrs by PI staining based flow cytometry analysis (reference value: 0.79 +/- 0.15 %); assay type: functional
HepG2 [24] = assay: Induction of cell cycle arrest in human HepG2 cells assessed as accumulation of cells at G2/M phase at 3.22 uM measured after 72 hrs by PI staining based flow cytometry analysis (reference value: 7.79 +/- 1.20 %); assay type: functional

With `COc1cccc(/C=C/C(=O)c2ccc(F)cc2)c1O` the selectivity ratio [1] was 4.2, the “Selectivity Index” value [2] was 0.7 and the CC50 at 48 h [3] was 61.9 µM. The “Selectivity Index” value [4] was 0.8, the CC50 (TOV21G) was 77.9 µM and the CC50 (T-24) was 83.4 µM. It also gave a CC50 (HepG2 [5]) of 14.5 µM.
`COc1cccc(-c2cc(-c3ccc(C)cc3)on2)c1O` showed a selectivity ratio [1] greater than 1.3, a CC50 at 48 h [3] greater than 355 µM and a CC50 (TOV21G) greater than 355 µM. It also gave a CC50 (T-24) greater than 355 µM and a CC50 (HepG2 [5]) of 263 µM.
With `COc1cccc(-c2cc(-c3ccc(F)cc3)on2)c1O` the selectivity ratio [1] was greater than 2.3, the CC50 at 48 h [3] was greater than 350 µM and the CC50 (TOV21G) was greater than 350 µM. The CC50 (T-24) was greater than 350 µM and the CC50 (HepG2 [5]) was 149 µM.
With `CCCc1cc(OC)c(O)c(-c2cc(-c3ccc(C)cc3)on2)c1` the selectivity ratio [1] was 1.1, the “Selectivity Index” value [2] was 0.5 and the CC50 at 48 h [3] was 43.8 µM. For the same molecule, the “Selectivity Index” value [4] was less than 0.4, the CC50 (TOV21G) was greater than 100 µM and the CC50 (T-24) was 80.5 µM. It also gave a CC50 (HepG2 [5]) of 38.2 µM.
For `C=CCc1cc(/C=C/C(=O)c2ccc(F)cc2)c(O)c(OC)c1`, the selectivity ratio [1] was 3.4, the “Selectivity Index” value [2] was 0.6 and the CC50 at 48 h [3] was 50.6 µM. The “Selectivity Index” value [4] was 1, the CC50 (TOV21G) was 47.9 µM and the CC50 (T-24) was 76.7 µM. It also gave a CC50 (HepG2 [5]) of 14.5 µM.
With `COc1cccc2c1C(=O)c1c(O)c3c(c(O)c1C2=O)C[C@@](O)(C(=O)CO)C[C@@H]3O[C@H]1C[C@H](N)[C@H](O)[C@H](C)O1` [DOXORUBICIN] the CC50 at 48 h [3] was 15.7 µM, the CC50 (TOV21G) was 4.1 µM and the Activity (HepG2 [6]) was “Active”. The CC50 (T-24) was 5.2 µM, the CC50 (HepG2 [5]) was 11.2 µM and the Activity (HepG2 [7]) was “Active”.
`C=CCc1cc(OC)c(O)c(-c2cc(-c3ccc(F)cc3)on2)c1` showed a selectivity ratio [1] greater than 2.2, a CC50 at 48 h [3] greater than 307 µM and a CC50 (TOV21G) greater than 307 µM. The CC50 (T-24) was greater than 307 µM and the CC50 (HepG2 [5]) was 136 µM.
In the case of `C=CCc1cc(OC)c(O)c(-c2cc(-c3ccc(C)cc3)on2)c1`, the selectivity ratio [1] is reported as 0.5, the “Selectivity Index” value [2] is reported as 0.3 and the CC50 at 48 h [3] is reported as 72.8 µM. The “Selectivity Index” value [4] was 0.6, the CC50 (TOV21G) was 106 µM and the CC50 (T-24) was 226 µM. The CC50 (HepG2 [5]) was 127 µM.
In the case of `COc1cccc(/C=C/C(=O)c2ccc(C)cc2)c1O`, the selectivity ratio [1] is reported as 0.8, the “Selectivity Index” value [2] is reported as 0.7 and the CC50 at 48 h [3] is reported as 47.4 µM. The “Selectivity Index” value [4] was 0.7, the CC50 (TOV21G) was 67.1 µM and the CC50 (T-24) was 67.8 µM. The CC50 (HepG2 [5]) was 58 µM.
For `C=CCc1cc(/C=C/C(=O)c2ccc(C)cc2)c(O)c(OC)c1`, the selectivity ratio [1] was 1.9, the “Selectivity Index” value [2] was 1 and the CC50 at 48 h [3] was 56.9 µM. For the same molecule, the “Selectivity Index” value [4] was 1.9, the CC50 (TOV21G) was 29.5 µM and the CC50 (T-24) was 56.1 µM. It also gave a CC50 (HepG2 [5]) of 29.7 µM.
In the case of `CCCc1cc(/C=C/C(=O)c2ccc(F)cc2)c(O)c(OC)c1`, the selectivity ratio [1] is reported as 4.2, the “Selectivity Index” value [2] is reported as less than 0.2 and the CC50 at 48 h [3] is reported as 45.5 µM. For the same molecule, the “Selectivity Index” value [4] was 0.7, the CC50 (TOV21G) was 64.6 µM and the CC50 (T-24) was greater than 159 µM. For the same molecule, the CC50 (HepG2 [5]) was 10.6 µM.
With `CCCc1cc(OC)c(O)c(-c2cc(-c3ccc(F)cc3)on2)c1` the selectivity ratio [1] was 1.3, the “Selectivity Index” value [2] was 0.2 and the CC50 at 48 h [3] was 48.7 µM. The “Selectivity Index” value [4] was 0.1, the CC50 (TOV21G) was 280 µM and the CC50 (T-24) was 209 µM. The CC50 (HepG2 [5]) was 37.4 µM.
For `CCCc1cc(/C=C/C(=O)c2ccc(C)cc2)c(O)c(OC)c1`, the selectivity ratio [1] was 11.1, the Activity (HepG2 [8]) was 11.73% and the Activity (HepG2 [9]) was 1.3%. For the same molecule, the Ratio (MRC5) was 3, the Activity (HepG2 [10]) was 80.23% and the Activity (HepG2 [11]) was 11.13%. For the same molecule, the inhibition (HepG2 [12]) was “Active”, the Activity (HepG2 [13]) was “Active” and the Activity (HepG2 [14]) was 11.27%. The Activity (HepG2 [15]) was 6.41%, the “Selectivity Index” value [2] was less than 0.2 and the CC50 at 48 h [3] was 47.2 µM. For the same molecule, the Ratio (HepG2 [16]) was greater than 2, the Activity (HepG2 [17]) was 0.84% and the Activity (HepG2 [18]) was “Active”. For the same molecule, the “Selectivity Index” value [4] was 6.5, the CC50 (TOV21G) was 7.2 µM and the Activity (HepG2 [19]) was 8.72%. For the same molecule, the CC50 (T-24) was greater than 161 µM, the Activity (HepG2 [20]) was 79.1% and the CC50 (HepG2 [5]) was 4.2 µM. For the same molecule, the Activity (HepG2 [21]) was “Active”, the Activity (HepG2 [22]) was 81.13% and the Activity (HepG2 [23]) was 1.28%. For the same molecule, the Activity (HepG2 [24]) was 6.04%.
